For test [1], the target named is T1, Human Calpain 9/NS1 (Homo sapiens, UniProt O14815).
T1 sequence (O14815 1-690): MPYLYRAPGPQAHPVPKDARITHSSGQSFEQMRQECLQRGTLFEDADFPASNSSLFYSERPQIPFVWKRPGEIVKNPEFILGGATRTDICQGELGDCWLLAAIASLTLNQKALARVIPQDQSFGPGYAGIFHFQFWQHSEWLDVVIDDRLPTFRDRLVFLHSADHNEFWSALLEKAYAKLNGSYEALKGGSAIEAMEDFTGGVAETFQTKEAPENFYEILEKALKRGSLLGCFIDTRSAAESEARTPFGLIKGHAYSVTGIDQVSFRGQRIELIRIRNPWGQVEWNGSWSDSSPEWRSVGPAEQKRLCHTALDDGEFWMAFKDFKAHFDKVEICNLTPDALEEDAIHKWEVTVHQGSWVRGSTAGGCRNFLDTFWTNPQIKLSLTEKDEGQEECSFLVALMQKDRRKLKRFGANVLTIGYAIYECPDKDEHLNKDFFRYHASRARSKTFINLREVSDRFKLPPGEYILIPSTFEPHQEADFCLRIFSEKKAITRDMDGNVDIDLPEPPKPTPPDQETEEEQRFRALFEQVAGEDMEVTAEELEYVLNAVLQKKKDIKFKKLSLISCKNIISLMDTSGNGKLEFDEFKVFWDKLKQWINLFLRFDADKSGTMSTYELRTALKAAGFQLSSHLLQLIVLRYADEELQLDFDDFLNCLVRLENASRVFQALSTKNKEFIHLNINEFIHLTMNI
T1 sequence (P04632 1-268 partner): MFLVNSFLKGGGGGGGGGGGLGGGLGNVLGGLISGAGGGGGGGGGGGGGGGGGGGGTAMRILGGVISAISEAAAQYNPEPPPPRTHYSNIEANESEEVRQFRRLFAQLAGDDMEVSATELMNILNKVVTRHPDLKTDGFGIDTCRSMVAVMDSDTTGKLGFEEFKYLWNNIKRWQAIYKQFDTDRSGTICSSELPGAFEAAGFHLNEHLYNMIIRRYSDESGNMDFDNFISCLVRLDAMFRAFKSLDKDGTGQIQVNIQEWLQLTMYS
Put plainly: Biochemical inhibition of calpain 9, continuous fluorescence (FRET substrate) assay. The following applies: mean; read-out: Human Calpain 9/NS1 IC50 (nM)_MEAN. The procedure, abridged: (§1)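 Calpains preincubated with inhibitor at 25 °C in 50 mM Tris pH 7.5, 100 mM NaCl, 1 mM DTT; reaction started with 5-FAM/QXL520 FRET peptide plus CaCl2 for activation. Fluorescence (ex 490/em 520 nm) followed 10 min; rates from 1–5 min slopes, IC50 by 4-parameter logistic fit.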

The subject of test [2] is calpain activity in SH-SY5Y cells (Spectrin). As to the kind of experiment: SH-SY5Y Spectrin cellular calpain inhibition. The class given is cell-based.
In test [3] the target is T2, Human Calpain 1/NS1 (Homo sapiens, UniProt P07384).
T2 sequence (P07384 1-714): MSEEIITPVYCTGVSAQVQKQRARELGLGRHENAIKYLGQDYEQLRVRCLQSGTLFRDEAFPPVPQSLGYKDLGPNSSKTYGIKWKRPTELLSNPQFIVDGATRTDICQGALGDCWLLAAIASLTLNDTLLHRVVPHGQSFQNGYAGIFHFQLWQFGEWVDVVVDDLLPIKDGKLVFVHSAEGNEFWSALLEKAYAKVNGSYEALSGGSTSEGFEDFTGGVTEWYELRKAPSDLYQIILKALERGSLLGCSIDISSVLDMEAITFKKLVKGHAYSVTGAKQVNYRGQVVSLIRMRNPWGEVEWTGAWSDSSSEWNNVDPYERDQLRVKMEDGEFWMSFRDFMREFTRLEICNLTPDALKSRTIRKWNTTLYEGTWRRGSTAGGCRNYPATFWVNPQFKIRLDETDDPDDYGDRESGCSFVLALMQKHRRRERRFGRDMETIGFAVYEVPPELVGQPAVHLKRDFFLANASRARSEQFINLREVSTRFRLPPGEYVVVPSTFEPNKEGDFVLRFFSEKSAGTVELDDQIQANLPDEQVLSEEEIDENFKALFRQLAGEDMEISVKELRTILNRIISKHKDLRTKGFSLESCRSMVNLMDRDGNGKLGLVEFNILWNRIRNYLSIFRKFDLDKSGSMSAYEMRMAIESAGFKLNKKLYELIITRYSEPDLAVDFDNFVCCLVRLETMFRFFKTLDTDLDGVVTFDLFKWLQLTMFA
T2 sequence (P04632 1-268 partner): T1 sequence (P04632 1-268 partner)
Put plainly: Biochemical inhibition of calpain 1, continuous fluorescence (FRET substrate) assay. The following applies: mean; read-out: Human Calpain 1/NS1 IC50 (nM)_MEAN. The procedure, abridged: as §1

Test [4] relates to calpain activity in SH-SY5Y cells. Put plainly: SH-SY5Y cellular calpain activity, Suc-LLVY-AMC fluorescence assay. The class given is cell-based. Conditions: Suc-LLVY-AMC substrate. The procedure, abridged: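 SH-SY5Y cells (1% serum, seeded overnight at 37 C) pre-incubated 30 min with serially diluted compound, then given 100 uM cell-permeable Suc-LLVY-AMC. AMC fluorescence followed continuously on FLIPR; slopes taken as calpain activity, and IC50 from 4-parameter logistic fit of slope versus log concentration.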

The target of test [5] is T3, Human Calpain 2/NS1 (Homo sapiens, UniProt P17655).
T3 sequence (P17655 1-700): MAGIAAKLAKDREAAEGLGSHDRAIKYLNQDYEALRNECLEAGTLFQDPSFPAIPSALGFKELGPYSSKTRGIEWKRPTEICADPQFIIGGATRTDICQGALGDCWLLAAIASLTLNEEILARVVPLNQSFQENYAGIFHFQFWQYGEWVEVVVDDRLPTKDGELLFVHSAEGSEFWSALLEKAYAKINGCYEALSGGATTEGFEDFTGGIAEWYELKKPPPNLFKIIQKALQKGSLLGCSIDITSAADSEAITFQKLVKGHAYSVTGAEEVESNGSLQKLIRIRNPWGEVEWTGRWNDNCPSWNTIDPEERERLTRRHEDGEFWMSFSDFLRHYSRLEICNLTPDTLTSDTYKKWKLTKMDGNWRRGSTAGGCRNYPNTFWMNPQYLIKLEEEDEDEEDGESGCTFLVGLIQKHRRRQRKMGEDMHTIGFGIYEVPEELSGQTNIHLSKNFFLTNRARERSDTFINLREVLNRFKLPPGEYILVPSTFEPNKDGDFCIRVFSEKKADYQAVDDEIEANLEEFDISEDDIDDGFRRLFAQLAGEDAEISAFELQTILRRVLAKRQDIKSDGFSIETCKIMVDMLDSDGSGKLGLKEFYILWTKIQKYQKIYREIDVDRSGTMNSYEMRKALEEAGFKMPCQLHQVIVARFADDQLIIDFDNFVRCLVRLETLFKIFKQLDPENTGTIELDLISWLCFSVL
T3 sequence (P04632 1-268 partner): T1 sequence (P04632 1-268 partner)
Put plainly: Biochemical inhibition of calpain 2, continuous fluorescence (FRET substrate) assay. The following applies: mean; read-out: Human Calpain 2/NS1 1C50 [sic] (nM)_MEAN. A digest of the protocol:
as §1

A value given as a limit tells only on which side of the number the result lay.

IC50 data for 12 molecules are collected here from patent publication US20210347727A1 (BLADE THERAPEUTICS, INC., priority 2017, published 2021).

As for `COc1ccc(Br)cc1C(=O)N[C@@H](Cc1ccccc1)C(=O)C(N)=O` [Compound 35, (S)—N-(4-AMINO-3,4-DIOXO-1-PHENYLBUTAN-2-YL)-5-BROMO-2-METHOXYBENZAMIDE], the IC50 in test [1] was under 3000 nM; in test [2], 10 to 25 µM; in test [3], under 3000 nM; in test [4], under 10 µM; in test [5], under 3000 nM.
Regarding `COc1ccc(Cl)cc1C(=O)NC(C=O)Cc1ccccc1` (stereo not drawn) [Compound 37, 5-CHLORO-2-METHOXY-N-(1-OXO-3-PHENYLPROPAN-2-YL)BENZAMIDE], the IC50 in test [1] is over 10000 nM; in test [2], over 25 µM; in test [3] it was 3000 to 10000 nM; in test [4] it was over 25 µM; in test [5] it was under 3000 nM.
`O=CC(Cc1ccccc1)NC(=O)c1c(C(F)(F)F)ccc(Cl)c1F` (stereo not drawn) [Compound 38, 3-CHLORO-2-FLUORO-N-(1-OXO-3-PHENYLPROPAN-2-YL)-6-(TRIFLUOROMETHYL)BENZAMIDE]: the IC50 in test [1] is under 3000 nM; in test [2], under 10 µM; in test [3], under 3000 nM; in test [4], 10 to 25 µM; in test [5], under 3000 nM.
With `O=CC(Cc1ccccc1)NC(=O)c1c(F)cccc1C(F)(F)F` (stereo not drawn) [Compound 39, 2-FLUORO-N-(1-OXO-3-PHENYLPROPAN-2-YL)-6-(TRIFLUOROMETHYL)BENZAMIDE], the IC50 in test [1] was under 3000 nM; in test [2], over 25 µM; in test [3], under 3000 nM; in test [4], 10 to 25 µM; in test [5] it was under 3000 nM.
For the molecule `O=CC(Cc1ccccc1)NC(=O)c1c(F)cccc1F` (stereo not drawn) [Compound 40, 2,6-DIFLUDRO-N-(1-OXO-3-PHENYLPROPAN-2-YL)BENZAMIDE], the IC50 in test [1] is under 3000 nM; in test [2], 10 to 25 µM; in test [3], under 3000 nM; in test [4] it was over 25 µM; in test [5] it was under 3000 nM.
Consider `Cc1ccc(F)c(C(=O)NC(C=O)Cc2ccccc2)c1Cl` (stereo not drawn) [Compound 42, 2-CHLORO-6-FLUORO-3-METHYL-N-(1-OXO-3-PHENYLPROPAN-2-YL)BENZAMIDE], for which the IC50 in test [1] is under 3000 nM; in test [2] it was 10 to 25 µM; in test [3], under 3000 nM; in test [4] it was under 10 µM; in test [5], under 3000 nM.
Take `COc1ccc(F)c(C(=O)NC(C=O)Cc2ccccc2)c1Cl` (stereo not drawn) [Compound 43, 2-CHLORO-6-FLUORO-3-METHOXY-N-(1-OXO-3-PHENYLPROPAN-2-YL)BENZAMIDE]: the IC50 in test [1] was under 3000 nM; in test [2], 10 to 25 µM; in test [3], under 3000 nM; in test [4] it was under 10 µM; in test [5] it was under 3000 nM.
As to `O=CC(Cc1ccccc1)NC(=O)c1c(Cl)ccc2ccccc12` (stereo not drawn) [Compound 44, 2-CHLORO-N-(1-OXO-3-PHENYLPROPAN-2-YL)-1-NAPHTHAMIDE], the IC50 is under 3000 nM in test [1]; under 10 µM in test [2]; under 3000 nM in test [3]; under 10 µM in test [4]; under 3000 nM in test [5].
In the case of `O=CC(Cc1ccccc1)NC(=O)c1c(Cl)cccc1Cl` (stereo not drawn) [Compound 45, 2,6-DICHLORO-N-(1-OXO-3-PHENYLPROPAN-2-YL)BENZAMIDE], the IC50 in test [1] is under 3000 nM; in test [2], 10 to 25 µM; in test [3], under 3000 nM; in test [4] it was under 10 µM; in test [5], under 3000 nM.
As to `O=CC(Cc1ccccc1)NC(=O)c1cccc2c1oc1ccccc12` (stereo not drawn) [Compound 46, N-(1-OXO-3-PHENYLPROPAN-2-YL)DIBENZO[b,a]FURAN-4-CARBOXAMIDE], the IC50 in test [1] was 3000 to 10000 nM; in test [2], 10 to 25 µM; in test [3], 3000 to 10000 nM; in test [4], over 25 µM; in test [5], under 3000 nM.
With `Cn1c2ccccc2c2c(C(=O)NC(C=O)Cc3ccccc3)cccc21` (stereo not drawn) [Compound 47, 9-METHYL-N-(1-OXO-3-PHENYLPROPAN-2-YL)-9H-CARBAZOLE-4-CARBOXAMIDE], the IC50 in test [1] was under 3000 nM; in test [2], over 25 µM; in test [3], under 3000 nM; in test [4], under 10 µM; in test [5], under 3000 nM.
Consider `O=CC(Cc1ccccc1)NC(=O)c1cccc2c1Oc1ccccc1O2` (stereo not drawn) [Compound 48], for which the IC50 in test [1] was under 3000 nM; in test [2], over 25 µM; in test [3] it was under 3000 nM; in test [4], over 25 µM; in test [5], under 3000 nM.
